Assay results as given in article PMC5464911, “SEL120-34A is a novel CDK8 inhibitor active in AML cells with high levels of serine phosphorylation of STAT1 and STAT5 transactivation domains” (Oncotarget, 2017).

What was measured:
[1] = test system: IRF9 and STAT1 mRNA; assay: IFN-responsive gene expression in HCT-116 and Colo-205 cells (qRT-PCR); assay type: cell-based; settings: HCT-116 and Colo-205, 0.5 μM, IFNg treated cells, at least one early (0-3 h) and late (24 h-48 h) time point
Method: Figure 3 SEL120-34A inhibits interferon- induced genes expression in a dose dependent manner (A) HCT-116 and Colo-205 cells were made quiescent overnight by decreasing FBS in medium to 0.5% and then preincubated with 0.5 μM SEL120-34A for 1 h followed by either IFNg (5 ng/mL) or IFNa (250 units/mL) stimulation in the presence of SEL120-34A. At the indicated time point, cells were harvested, RNA extracted and transcripts levels analyzed by the qRT-PCR reaction. The results were normalized for RPLP0 mRNA (means ±S.D., n=3). (B) Colo-205 cells were synchronized as in panel A and then challenged with increasing doses of SEL120-34A for 1 h followed by either 3 h IFNg ([…]) or 48 h IFNa (250 units/ml) stimulation. At this time RNA was extracted, DNAse I digested and subjected to the qRT-PCR reaction. […] Differences between mRNA levels for control and SEL120-34A at the indicated time points were assessed by t-tests. […]
[…]

[2] = test system: AML cell lines; assay: Broad profiling in a panel of AML cell lines (extended viability tests); assay type: cell-based; settings: SKNO-1, KG-1, HEL-60, MOLM-16, MV-4-11, OciAML-2, MOLM-6 and OciAML-3; read-out: GI50 in sensitive responder cell lines
Method: Mean GI50 (day 10) is shown and plotted on the graph (n=3). (D) Levels of phosphorylated STAT5 S726 and […] in AML cells from the panel C were measured by WB. Densitometry for STAT5 S726 and […] signals is shown and plotted on the graph. Cell lines from the panel D were divided into two classes based on the sensitivity to CDK8 inhibitors treatment (responders GI50<1 μM and non-responder GI50>1 μM), mean levels of STAT5 S726 (E) or STAT1 S727 (F) in selected cell lines measured by densitometry were presented on scatter plots. Differences between responder and non-responder were assessed by t-tests (p value is shown).
Cells grown in suspension were plated onto 96-well culture dishes in triplicate at 20000 cells per well in 200 μl of their culture medium, except Kasumi-1 cells, which were plated at 60 000/well. Cells were incubated in the presence of vehicle, 1 μM docetaxel (positive control, Santa Cruz Biotechnology) or 6 serially - diluted concentrations of tested compound. The compound effect was determined by AlamarBlue measurement. On days 3, 6-7 and 10, an equal volume from all wells was also split-back with fresh media supplemented with tested compound, resulting in a cell density for the vehicle well that matched the initial seeding density. […]

[3] = target: CDK8/CycC (Homo sapiens, UniProt P49336); assay: CDK8 Eu kinase binding assay (LanthaScreen TR-FRET); parameters: purchased ProQinase; settings: read-out: dissociation constant (Kd) for the CDK8 protein
Chain of CDK8/CycC (P49336 whole entry): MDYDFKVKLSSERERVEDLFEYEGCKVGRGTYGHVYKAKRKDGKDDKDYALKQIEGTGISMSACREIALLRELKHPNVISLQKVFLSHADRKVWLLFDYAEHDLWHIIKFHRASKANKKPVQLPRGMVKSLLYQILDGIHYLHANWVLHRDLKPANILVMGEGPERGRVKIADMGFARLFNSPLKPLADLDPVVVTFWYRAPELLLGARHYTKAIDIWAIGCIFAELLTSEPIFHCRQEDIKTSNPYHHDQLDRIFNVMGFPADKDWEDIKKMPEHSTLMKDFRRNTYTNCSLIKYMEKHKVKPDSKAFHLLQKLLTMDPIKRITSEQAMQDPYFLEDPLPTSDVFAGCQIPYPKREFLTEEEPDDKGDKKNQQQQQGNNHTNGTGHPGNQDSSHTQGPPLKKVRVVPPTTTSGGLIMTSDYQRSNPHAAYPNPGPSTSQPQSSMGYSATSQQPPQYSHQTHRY
Chain of CDK8/CycC (P24863 whole entry partner): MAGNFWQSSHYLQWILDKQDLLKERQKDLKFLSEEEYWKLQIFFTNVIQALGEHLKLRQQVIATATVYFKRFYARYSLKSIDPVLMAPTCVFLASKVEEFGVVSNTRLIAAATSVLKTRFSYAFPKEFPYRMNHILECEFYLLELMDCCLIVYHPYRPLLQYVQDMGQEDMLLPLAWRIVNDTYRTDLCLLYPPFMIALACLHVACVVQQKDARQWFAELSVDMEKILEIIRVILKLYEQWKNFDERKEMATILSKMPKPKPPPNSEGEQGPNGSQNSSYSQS

Structure (SMILES): Cc1c(Br)c(Br)c2c3c1nc(N1CCNCC1)n3CCC2 [SEL120-34A]
- IRF9 and STAT1 mRNA expression [1]: significantly decreased
- GI50 [2]: < 1000 nM
- Kd [3]: 3 nM
